According to PubChem BioAssay (NCI):
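Grown in 96-well plates, cells were treated for 48 hours with each compound at five concentrations. Insufficient inhibition: endpoint recorded as highest concentration tested. GI50 = concentration required for 50% inhibition of growth. The concentration for full growth arrest is given as TGI.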

How the values were obtained:
Test in all cases: DTP human tumour cell line panel, 48 h
CAKI-1 renal = test system: CAKI-1 renal
A549 NSCLC = test system: A549 NSCLC
SW-620 colon = test system: SW-620 colon
HCT-116 colon = test system: HCT-116 colon
SK-MEL-28 melanoma = test system: SK-MEL-28 melanoma
MOLT-4 leukemia = test system: MOLT-4 leukemia
NCI-H522 lung = test system: NCI-H522 lung
DU-145 prostate = test system: DU-145 prostate
SK-MEL-2 melanoma = test system: SK-MEL-2 melanoma
786-0 renal = test system: 786-0 renal

SMILES | GI50 (CAKI-1 renal) [µM] | TGI (CAKI-1 renal) [µM] | GI50 (A549 NSCLC) [µM] | TGI (A549 NSCLC) [µM] | GI50 (SW-620 colon) [µM] | TGI (SW-620 colon) [µM] | GI50 (HCT-116 colon) [µM] | TGI (HCT-116 colon) [µM] | GI50 (SK-MEL-28 melanoma) [µM] | TGI (SK-MEL-28 melanoma) [µM] | GI50 (MOLT-4 leukemia) [µM] | TGI (MOLT-4 leukemia) [µM] | GI50 (NCI-H522 lung) [µM] | TGI (NCI-H522 lung) [µM] | GI50 (DU-145 prostate) [µM] | TGI (DU-145 prostate) [µM] | GI50 (SK-MEL-2 melanoma) [µM] | TGI (SK-MEL-2 melanoma) [µM] | GI50 (786-0 renal) [µM] | TGI (786-0 renal) [µM]
COc1ccc(N(/C=C/C(=O)C(F)(F)F)CC(=O)c2ccc(Cl)c(Cl)c2)cc1 | 15.6 | 34.7 | 17.7 | 68 | 27 | > 100 | 9.94 | 21.5 | 28.1 | 79.4 | 3.9 | > 100 | 19.4 | 43.7 | 11.3 | 24.6 | 19.6 | 44 | 15.5 | 29.5
N#Cc1c(N)nc(N2CCOCC2)c(C#N)c1-c1ccccc1Cl | 32.4 | > 100 | 66.5 | > 100 | > 100 | > 100 | 74.7 | > 100 | 33.6 | > 100 | 34.2 | > 100 | 0.0236 | 2.81 | 93.4 | > 100 | 41.9 | > 100 | 62.1 | > 100
O=C(COc1cccc(/C=C2\CSc3ccccc3C2=O)c1)c1ccc(Cl)cc1 | 3.97 | 10.1 | 11.8 | 65.6 | 0.231 | 0.606 | 0.689 | 1.95 | 1.78 | 3.46 | 1.07 | 3.44 | 1.61 | 3.67 | 2.31 | 5.61 | 1.76 | 3.45 | 1.4 | 2.89
C[C@H](N)C(=O)N1C[C@H](CCCB(O)O)[C@](N)(C(=O)O)C1 | > 100 | > 100 | > 100 | > 100 | > 100 | > 100 | > 100 | > 100 | > 100 | > 100 | > 100 | > 100 | > 100 | > 100 | > 100 | > 100 | > 100 | > 100 | > 100 | > 100
CCOC(=O)Nc1nc2c(C)cccc2s1 | 45.7 | > 100 | 43.9 | > 100 | 64.7 | > 100 | 45.3 | > 100 | > 100 | > 100 | 38.1 | > 100 | 47.8 | > 100 | 51.1 | > 100 | 85.8 | > 100 | > 100 | > 100
C=C1C[C@@]2(C)C(CC[C@]3(C)C2CC=C2C4CC(C)(C)C[C@@H](OC(=O)/C(C)=C\C)[C@]4(C(=O)O)CC[C@]23C)C(C)(C)C1=O (stereo not given in full) | 1.88 | 4.72 | 3.8 | 25.8 | 2.74 | 9.31 | 1.81 | 3.91 | 2.32 | 5.44 | 2.91 | 24.8 | 2.76 | 10.1 | 4.37 | 16 | 5.93 | 24.4 | 2 | 3.9
NS(=O)(=O)c1ccc(NC(=O)c2cccc3cc4ccccc4nc23)cc1 | – | > 100 | – | > 100 | – | > 100 | – | > 100 | – | > 100 | – | 68.4 | – | > 100 | – | > 100 | – | > 100 | – | > 100
Cc1c(N=Cc2ccc(N(CCC#N)CCC#N)cc2)c(=O)n(-c2ccccc2)n1C | – | > 100 | – | > 100 | – | > 100 | – | > 100 | – | > 100 | – | > 100 | – | > 100 | – | > 100 | – | > 100 | – | 90.3
Nc1nc(-c2cccc([N+](=O)[O-])c2)cc(-c2cc(-c3cccc([N+](=O)[O-])c3)nc(N)n2)n1 | – | > 100 | – | > 100 | – | > 100 | – | > 100 | – | > 100 | – | > 100 | – | > 100 | – | > 100 | – | > 100 | – | > 100
OCc1ccc(N(CCN2CCCC2)Cc2ccc(F)cc2)cc1Cl | 4.15 | 19.4 | 6.5 | 27.9 | 16.7 | 32.9 | 13.4 | 37.3 | 15.9 | 30.2 | 25.2 | 62.7 | 16.8 | 34.4 | 17.1 | 39.7 | 17 | 33 | 21 | 66
CCCN(CCSSCCNc1nc(N(C)O)nc(N(C)O)n1)c1nc(N(C)O)nc(N(C)O)n1 | 2.47 | > 100 | 7.59 | > 100 | 6.72 | > 100 | 3.97 | > 100 | 6.99 | > 100 | 3.72 | > 100 | 92.1 | > 100 | 8.78 | > 100 | 18.6 | > 100 | 3.67 | > 100
CN(C)CCCn1c2nc(=O)[nH]c(=O)c-2nc2cc(Cl)c(Cl)cc21 | 1.83 | 4.66 | 4.02 | 16.3 | 2.58 | 11.7 | 0.418 | 6.71 | 18.9 | 34 | 4.35 | 22.8 | 2.1 | 4.23 | 16.4 | 30 | 4.81 | 16.1 | 8.79 | 23.2
O=C1CCS/C(=N\S(=O)(=O)c2ccc(N3N=C4c5ccccc5CC4C3c3cccs3)cc2)N1C(=O)c1ccccc1 (stereo not given) | 26.8 | 86.6 | 10.6 | 24.3 | 13.1 | > 100 | 10 | 21.6 | 50.2 | > 100 | 5.04 | 77.9 | 14.4 | 65.1 | 23.2 | > 100 | 29.4 | > 100 | 14.1 | 27.2
